Laboratory results from patent US20190367516A1 (Bayer Pharma Aktiengesellschaft, priority 2015, published 2019).
Where two headings read alike, the source gives them in different places.

Assays:
[1] = molecular target: T1, human M2 receptor (Homo sapiens, UniProt P08172); format: cell-based; settings: α >1 = positive cooperativity
T1 sequence (P08172 1-466): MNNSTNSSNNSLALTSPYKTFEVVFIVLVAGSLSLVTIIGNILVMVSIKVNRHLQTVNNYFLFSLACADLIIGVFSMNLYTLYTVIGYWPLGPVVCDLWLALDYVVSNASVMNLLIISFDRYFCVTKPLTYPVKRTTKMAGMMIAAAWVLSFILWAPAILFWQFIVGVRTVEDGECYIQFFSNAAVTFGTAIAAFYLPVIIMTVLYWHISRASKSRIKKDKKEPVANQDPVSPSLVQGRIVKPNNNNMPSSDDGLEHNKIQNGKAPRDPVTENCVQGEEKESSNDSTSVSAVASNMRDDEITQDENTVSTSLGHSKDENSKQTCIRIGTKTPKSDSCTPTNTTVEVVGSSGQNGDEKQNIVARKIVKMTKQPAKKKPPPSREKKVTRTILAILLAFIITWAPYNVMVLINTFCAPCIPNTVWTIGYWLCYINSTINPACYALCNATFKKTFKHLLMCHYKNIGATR

[2] = molecular target: T1, human M2 receptor; settings: for Emax: read-out: Efficiency, boosting of the acetylcholine effect at EC20 acetylcholine concentration; for Efficiency: boosting of the acetylcholine effect at EC20 acetylcholine concentration
[3] = shift of acetylcholine dose-response curve (Allosteric EC50 shift)
[4] = Receptor activity EC50, allosteric potency at EC20 acetylcholine, M2-GIRK1/4 reporter cells, in some cases mean of two or more determinations
[5] = shift in the acetylcholine dose-response curve (Allosteric EC50 shift, GraphPad PRISM)
[6] = Receptor activity EC50, M2-GIRK1/4 activation test, acetylcholine at EC20, allosteric potency, in some cases mean values from two or more determinations

Cooperativity (alpha factor) [1, 3] | EC50 [2, 4] [nM] | Emax ([2]; M2-GIRK1/4 reporter cells) [%] | Cooperativity (alpha factor) [1, 5] | EC50 [2, 6] [nM] | Efficiency ([2]; M2-GIRK1/4 reporter cells) [%] | SMILES
57 | 7 | 100 |  |  |  | O=C(NC(C1CCC1)C(F)(F)F)c1cn(-c2c(F)cc(F)cc2F)c2nc(N3C[C@@H](O)CC3=O)ccc2c1=O (single isomer, unassigned) [Example 506]
14 | 16 | 94.5 |  |  |  | C[C@H](O)CN(C)c1ccc2c(=O)c(C(=O)N[C@@H](C3CC3)C(F)(F)F)cn(-c3c(F)cc(F)cc3F)c2n1 [Example 493]
61 | 5 | 100 |  |  |  | CC(C)C(NC(=O)c1cn(-c2c(F)cc(F)cc2F)c2nc(N3C[C@@H](O)CC3=O)ccc2c1=O)C(F)(F)F (single isomer, unassigned) [Example 527]
49 | 81 | 96.5 |  |  |  | CC[C@@H](NC(=O)c1cn(-c2c(F)cccc2F)c2nc(N3C[C@@H](O)[C@@H](O)C3)ccc2c1=O)C(F)(F)F [Example 648, 1-(2,6-Difluorophenyl)-7-[(3R,4S)-3,4-dihydroxypyrrolidin-1-yl]-4-oxo-N-[(2R)-1,1,1-trifluorobutan-2-yl]-1,4-dihydro-1,8-naphthyridine-3-carboxamide]
54 | 10 |  |  |  | 94.5 | CC(C)C(NC(=O)c1cn(-c2c(F)cc(F)cc2F)c2nc(N3C[C@@H](O)[C@H](O)C3)ccc2c1=O)C(F)(F)F (single isomer, unassigned) [Example 554]
 |  |  | 36 | 35 |  | O=C(NC12CC(C1)C2)c1cn(-c2c(F)cc(F)cc2F)c2nc(N3C[C@@H](O)[C@H](O)C3)ccc2c1=O [Example 366, N-(Bicyclo[1.1.1]pent-1-yl)-7-[(3R,4R)-3,4-dihydroxypyrrolidin-1-yl]-4-oxo-1-(2,4,6-trifluorophenyl)-1,4-dihydro-1,8-naphthyridine-3-carboxamide]
 |  |  | 13 | 12 |  | CC[C@H](NC(=O)c1cn(-c2c(F)cc(F)cc2Cl)c2nc(N3CCC(C)(C)C3=O)ccc2c1=O)C(F)(F)F [Example 336, 1-(2-Chloro-4,6-difluorophenyl)-7-(3,3-dimethyl-2-oxopyrrolidin-1-yl)-4-oxo-N-[(2S)-1,1,1-trifluorobutan-2-yl]-1,4-dihydro-1,8-naphthyridine-3-carboxamide]
37 | 12 | 99.3 |  |  |  | O=C(NC1(C(F)(F)F)CCC1)c1cn(-c2c(F)cc(F)cc2F)c2nc(N3C[C@@H](O)CC3=O)ccc2c1=O [Example 515, 7-[(4S)-4-Hydroxy-2-oxopyrrolidin-1-yl]-4-oxo-N-[1-(trifluoromethyl)cyclobutyl]-1-(2,4,6-trifluorophenyl)-1,4-dihydro-1,8-naphthyridine-3-carboxamide]
17 | 18 | 88 |  |  |  | O=C(N[C@@H](C1CC1)C(F)(F)F)c1cn(-c2c(F)cc(F)cc2F)c2nc(N3CCCC[C@@H]3CO)ccc2c1=O [Example 462, N-[(1 S)-1-Cyclopropyl-2,2,2-trifluoroethyl]-7-[(2R)-2-(hydroxymethyl)piperidin-1-yl]-4-oxo-1-(2,4,6-trifluorophenyl)-1,4-dihydro-1,8-naphthyridine-3-carboxamide]
29 | 17 | 89.5 |  |  |  | COC(=O)N1CCN(c2ccc3c(=O)c(C(=O)Nc4c(Cl)cccc4Cl)cn(-c4c(F)cc(F)cc4F)c3n2)CC1 [Example 593, Methyl 4-{6-[(2,6-dichlorophenyl)carbamoyl]-5-oxo-8-(2,4,6-trifluorophenyl)-5,8-dihydro-1,8-naphthyridin-2-yl}piperazine-1-carboxylate]
 |  |  | 12 | 40 |  | O=C(NC(c1ccccc1Cl)C(F)(F)F)c1cn(-c2ccccc2F)c2nc(N3CCC(O)C3=O)ccc2c1=O (single isomer, unassigned) [Example 288]
66 | 6 |  |  |  | 100.0 | CC(C)C(NC(=O)c1cn(-c2c(F)cc(F)cc2F)c2nc(N3C[C@@H](O)CC3=O)ccc2c1=O)C(F)(F)F (single isomer, unassigned) [Example 528]
49 | 13 | 97.5 |  |  |  | CC(C)C(NC(=O)c1cn(-c2c(F)cc(F)cc2F)c2nc(N3C[C@@H](O)[C@H](O)C3)ccc2c1=O)C(F)(F)F (single isomer, unassigned) [Example 553]

More lines, now with the values behind:

SMILES | Cooperativity (alpha factor) [1, 3] | EC50 [2, 4] [nM] | Emax ([2]; M2-GIRK1/4 reporter cells) [%] | Cooperativity (alpha factor) [1, 5] | EC50 [2, 6] [nM] | Efficiency ([2]; M2-GIRK1/4 reporter cells) [%]
CC[C@H](NC(=O)c1cn(-c2ccc(F)cc2F)c2nc(N3C[C@H](C(=O)OC)OC3=O)ccc2c1=O)C(F)(F)F [Example 259, Methyl (5R)-3-[8-(2,4-difluorophenyl)-5-oxo-6-{[(2S)-1,1,1-trifluorobutan-2-yl]carbamoyl}-5,8-dihydro-1,8-naphthyridin-2-yl]-2-oxo-1,3-oxazolidine-5-carboxylate] |  |  |  | 14 | 560 | 
C[C@H](NC(=O)c1cn(-c2ccc(F)cc2F)c2nc(N(C)C)ccc2c1=O)C(F)(F)F [Example 44, 1-(2,4-Difluorophenyl)-7-(dimethylamino)-4-oxo-N-[(2S)-1,1,1-trifluoropropan-2-yl]-1,4-dihydro-1,8-naphthyridine-3-carboxamide] |  |  |  | 12 | 111 | 
O=C(Nc1c(Cl)cccc1Cl)c1cn(-c2ccc(F)cc2F)c2nc(N3CC[C@H](O)C3=O)ccc2c1=O [Example 202, N-(2,6-Dichlorophenyl)-1-(2,4-difluorophenyl)-7-[(3S)-3-hydroxy-2-oxopyrrolidin-1-yl]-4-oxo-1,4-dihydro-1,8-naphthyridine-3-carboxamide] |  |  |  | 18 | 89 | 
CC[C@@H](NC(=O)c1cn(-c2ccc(F)cc2F)c2nc(N3CC4CNC(=O)C4C3)ccc2c1=O)C(F)(F)F (single isomer, unassigned) [Example 223] |  |  |  | 30 | 84 | 
O=C(NC(c1c(F)cccc1F)C(F)(F)F)c1cn(-c2ccc(F)cc2F)c2nc(N3CC[C@H](F)C3)ccc2c1=O (single isomer, unassigned) [Example 242] |  |  |  | 10 | 90 | 
CC(NC(=O)c1cn(-c2ccc(F)cc2F)c2nc(N3C[C@@H](O)CC3=O)ccc2c1=O)c1c(F)cccc1F (mixture of isomers) [Example 214, 1-(2,4-Difluorophenyl)-N-[1-(2,6-difluorophenyl)ethyl]-7-[(4S)-4-hydroxy-2-oxopyrrolidin-1-yl]-4-oxo-1,4-dihydro-1,8-naphthyridine-3-carboxamide] |  |  |  | 43 | 107 | 
O=C(NC1(C(F)(F)F)CCCC1)c1cn(-c2c(F)cc(F)cc2F)c2nc(N3C[C@@H](O)[C@H](O)C3)ccc2c1=O [Example 350, 7-[(3R,4R)-3,4-Dihydroxypyrrolidin-1-yl]-4-oxo-N-[1-(trifluoromethyl)cyclopentyl]-1-(2,4,6-trifluorophenyl)-1,4-dihydro-1,8-naphthyridine-3-carboxamide] |  |  |  | 42 | 6 | 
CC[C@@H](NC(=O)c1cn(-c2c(F)cc(F)cc2F)c2nc(N3CCC(O)C3=O)ccc2c1=O)C(F)(F)F (single isomer, unassigned) [Example 281] |  |  |  | 44 | 34 | 
CC[C@@H](NC(=O)c1cn(-c2ccc(F)cc2F)c2nc(N3CC(O)(C(F)(F)F)C3)ccc2c1=O)C(F)(F)F [Example 262, 1-(2,4-Difluorophenyl)-7-[3-hydroxy-3-(trifluoromethyl)azetidin-1-yl]-4-oxo-N-[(2R)-1,1,1-trifluorobutan-2-yl]-1,4-dihydro-1,8-naphthyridine-3-carboxamide] |  |  |  | 27 | 72 | 
O=C(NC(C1CC1)C(F)(F)F)c1cn(-c2ccccc2Cl)c2nc(N3C[C@@H](O)CC3=O)ccc2c1=O (mixture of isomers) [Example 279, 1-(2-Chlorophenyl)-N-[1-cyclopropyl-2,2,2-trifluoroethyl]-7-[(4S)-4-hydroxy-2-oxopyrrolidin-1-yl]-4-oxo-1,4-dihydro-1,8-naphthyridine-3-carboxamide] |  |  |  | 34 | 66 | 
CC(NC(=O)c1cn(-c2ccc(F)cc2F)c2nc(N3C[C@@H](O)CC3=O)ccc2c1=O)c1c(F)cccc1F (single isomer, unassigned) [Example 216] |  |  |  | 35 | 89 | 
O=C(NC12CC3CC(CC(C3)C1)C2)c1cn(-c2ccc(F)cc2F)c2nc(N3CC(F)CC3=O)ccc2c1=O (stereo not drawn) [Example 187, 1-(2,4-Difluorophenyl)-7-[4-fluoro-2-oxopyrrolidin-1-yl]-4-oxo-N-(tricyclo[3.3.1.1^3,7]dec-1-yl)-1,4-dihydro-1,8-naphthyridine-3-carboxamide] |  |  |  | 10 | 98 | 
